Reference: patent US11219625B2, “Inhibitors of N-linked glycosylation and methods using same” (YALE UNIVERSITY, priority 2015, dated 2022)

Assays:
Format in all cases: cell-based
[1] = Celltiter Glo viability assay, HEK293; conditions: human, HEK293 cells; HEK293, 72 h of compound exposure; read-out: Cytotoxicity Assay Mean EC50
Excerpt: (§1) The HTS approach using the bioluminescent N-linked glycosylation reporter (CCR 2011) in D54-ERLucT and D54-LucT cells has been previously described (Bennett, et al., Transl Oncol 2013, 6, 382-391). Briefly, the primary cell-based screen detects site occupancy of NLG sequons using a modified luciferase protein translated into the ER. […] The methodology for the primary (D54-ERlucT), secondary (D54-LucT), and tertiary (luciferase inhibition) screens as well and toxicity assays with CelltitreGlo are deposited in Pubchem (AID 588693).
(§2) To better understand the connection between structure and activity, analogs were prepared and tested in the D54-ERLucT cell based assay for inhibition of N-linked glycosylation (FIG. 1B). The assay was used to estimate and compare AC40 values among analogs and to guide the design of improved compounds that inhibited N-linked glycosylation. This effort generated 36 unique compounds with modifications to the amine component of the sulfonamide functionality (red), the pyrrolidine moiety (blue) or the methylaminothiazole group (green). Generally, incorporation of larger sulfonamides (i.e., larger secondary amines appended to the sulphone) was not well tolerated, resulting in erosion of potency (7 analogs). However, steric interactions could be mitigated by the introduction of a hydrogen bond accepting oxygen in a larger cyclic amine. Thus, morpholine was determined to be an acceptable surrogate for the dimethylamine component of the sulfonamide (FIGS. 1A-1D). The pyrrolidine group (blue) was replaced with various alkyl, cycloalkyl, and amine groups (7 compounds). The aminothiazole moiety was derivatized most extensively of all three regions (green highlighted area, 22 analogs). […] Analogs with the highest potency in the luciferase assay were retested with western blot analysis to insure that measurements of luciferase activation corresponded to loss of N-linked glycosylation.

HEK293 cells = assay: Celltiter Glo viability assay, HEK293; conditions: HEK293 EC50 over NLG AC40
Excerpt: as §1, §2

FGFR1 = assay: Western blot of FGFR phosphorylation, H1581 and H2444 cells; conditions: H1581 and H2444, FIG. 4F
Procedure: FIGS. 4A-4H illustrate the finding that NGI-1 blocks RTK driven proliferation. FIG. 4A illustrates western blot analysis of EGFR phosphorylation (Y1173) and gel mobility in PC9 (EGFR-mutant) and A549 (k-ras mutant) NSCLC cells after 10 μM NGI-1 treatment for 24 h. […] Actin expression was used as a control for protein loading. FIG. 4B illustrates MTT assays results of PC9 following treatment with 10 μM NGI-1 or 1 μM tunicamycin for a total of 5 d. Relative proliferation id reported in fold increase from day 0. FIG. 4C illustrates MTT assays results of A549 following treatment with 10 μM NGI-1 or 1 μM tunicamycin for a total of 5 d. Relative proliferation id reported in fold increase from day 0. FIG. 4D illustrates protein phosphorylation profiles of PC9 cells analyzed by phospho-protein array to assess the response of PC9 to 10 μM NGI-1 for 24 h. FIG. 4E illustrates protein phosphorylation profiles of A549 cells analyzed by phospho-protein array to assess the response of A549 to 10 μM NGI-1 for 24 h. FIG. 4F illustrates western blot analysis of FGFR phosphorylation (Y653/654) and gel mobility for H1581 (TKI sensitive) and H2444 (TKI insensitive) NSCLC cell lines. […] FIG. 4G illustrates MTT assays for H1581 cells treated with 10 μM NGI-1 for 5 d. Asterisk (***) indicates a significant difference p<0.001 for MTT. FIG. 4H illustrates MTT assays for H2444 cells treated with 10 μM NGI-1 for 5 d. […]

PC9 cells [2] = assay: MTT proliferation assay, PC9; conditions: PC9, 10 μM NGI-1, after 3 days, p<0.001
Procedure: FIGS. 4A-4H illustrate the finding that NGI-1 blocks RTK driven proliferation. FIG. 4A illustrates western blot analysis of EGFR phosphorylation (Y1173) and gel mobility in PC9 (EGFR-mutant) and A549 (k-ras mutant) NSCLC cells after 10 μM NGI-1 treatment for 24 h. […] Actin expression was used as a control for protein loading. FIG. 4B illustrates MTT assays results of PC9 following treatment with 10 μM NGI-1 or 1 μM tunicamycin for a total of 5 d. Relative proliferation id reported in fold increase from day 0. FIG. 4C illustrates MTT assays results of A549 following treatment with 10 μM NGI-1 or 1 μM tunicamycin for a total of 5 d. Relative proliferation id reported in fold increase from day 0. FIG. 4D illustrates protein phosphorylation profiles of PC9 cells analyzed by phospho-protein array to assess the response of PC9 to 10 μM NGI-1 for 24 h. FIG. 4E illustrates protein phosphorylation profiles of A549 cells analyzed by phospho-protein array to assess the response of A549 to 10 μM NGI-1 for 24 h. […]
Growth rates were determined by CellTiter 96 NonRadioactive Cell Proliferation Assay (Promega; Madison, Wis. USA) according to the manufacturer's directions. […] Cell numbers were estimated after 0, 3, and 5 days by adding MTT [(3-(4,5-Dimethylthiazol-2-yl)-2,5-diphenyltetrazolium bromide] reagent to the wells 4 hours before taking the spectrophotometric reading (absorbance at 570 nm).

PC9 cells [3] = assay: Apoptosis by flow cytometry (Annexin-V, 7-AAD), PC9; conditions: PC9, NGI-1 10 μM for 2 or 5 days, or Tn 1 μM
Procedure: Analysis of apoptosis susceptibility in A549 and PC9 NSCLC cell lines followed treatment with NGI-1 10 μM or Tn 1 μM for 2 days was done by flow cytometry after staining the cells with Annexin-V (early apoptosis) and 7-AAD (viability dye). […] FIG. 9C: Western blot of BIP protein for A549 and PC9 cells after treatment with 10 μM NGI-1 for 6, 12 or 24 h. The expression of GAPDH was used as a loading control.

Structure (SMILES): Cc1cnc(NC(=O)c2cc(S(=O)(=O)N(C)C)ccc2N2CCCC2)s1 [NGI-1, 5-(N,N-Dimethylsulfamoyl)-N-(5-methylthiazol-2-yl)-2-(pyrrolidin-1-yl)benzamide]
- EC50 at 72 h [1]: > 30 µM
- Selectivity (EC50/AC40) (HEK293 cells): >172
- FGFR1 phosphorylation (FGFR1): blocked FGFR1 phosphorylation
- reduction of cell proliferation, MTT (PC9 cells [2]): more than 90%
- induction of apoptosis (PC9 cells [3]): did not induce apoptosis
